Measurements as given in US9113629B2, “4-amino-6-(4-substituted-phenyl)-picolinates and 6-amino-2-(4-substituted-phenyl)-pyrimidine-4-carboxylates and their use as herbicides” (DOW AGROSCIENCES LLC, priority 2013, dated 2015).
Read-outs that look alike come from different tables or passages of the source.

What was measured:
[1] = test system: Key Broadleaf Weed and Crop Species; assay: Post-emergent Test II herbicidal activity (Table 5); type: in vivo; conditions: post-emergence, 336 h, post-emergent, 14 days after application; for pest or weed control at 70 g/ha: 70 g ai/ha; for pest or weed control at 140 g/ha: 140 g ai/ha
Outline: (§1)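 Percent injury, 0 (none) to 100 (complete kill), was judged visually 14 d after spraying young plants at the first or second true leaf stage with compound in an acetone/DMSO aqueous carrier at 187 L/ha. Plants were kept in a greenhouse at 23–29 °C by day.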

[2] = test system: Key Grass and Sedge Weeds as well as Grass Crops; assay: Post-emergent Test II herbicidal activity (Table 6); type: in vivo; conditions: post-emergence, 336 h; for pest or weed control at 70 g/ha: application rate 70 g ai/ha; for pest or weed control at 140 g/ha: application rate 140 g ai/ha
Outline: as §1

[3] = ABUTH: velvetleaf (Abutilon theophrasti), read-out: Visual Growth Reduction (%) 14 Days After Application ABUTH
[4] = AMARE: redroot pigweed (Amaranthus retroflexus), read-out: Visual Growth Reduction (%) 14 Days After Application AMARE
[5] = BRSNN: oilseed-rape, canola (Brassica napus), read-out: Visual Growth Reduction (%) 14 Days After Application BRSNN
[6] = CHEAL: lambsquarters (Chenopodium album), read-out: Visual Growth Reduction (%) 14 Days After Application CHEAL
[7] = EPHHL: wild poinsettia (Euphorbia heterophylla), read-out: Visual Growth Reduction (%) 14 Days After Application EPHHL
[8] = HELAN: sunflower (Helianthus annuus), read-out: Visual Growth Reduction (%) 14 Days After Application HELAN
[9] = VIOTR: wild pansy (Viola tricolor), read-out: Visual Growth Reduction (%) 14 Days After Application VIOTR
[10] = Triticum aestivum, TRZSS (wheat), read-out: Visual Growth Reduction (%) 14 Days After Application, TRZSS
[11] = CYPES: yellow nutsedge (Cyperus esculentus), read-out: Visual Growth Reduction (%) 14 Days After Application, CYPES
[12] = DIGSA: crabgrass (Digitaria sanguinalis), read-out: Visual Growth Reduction (%) 14 Days After Application, DIGSA
[13] = ECHCG: barnyardgrass (Echinochloa crus-galli), read-out: Visual Growth Reduction (%) 14 Days After Application, ECHCG
[14] = ORYSA: rice (Oryza sativa), read-out: Visual Growth Reduction (%) 14 Days After Application, ORYSA
[15] = SETFA: giant foxtail (Setaria faberi), read-out: Visual Growth Reduction (%) 14 Days After Application, SETFA
[16] = SORVU: grain sorghum (Sorghum vulgare), read-out: Visual Growth Reduction (%) 14 Days After Application, SORVU
[17] = ZEAMX: maize, corn (Zea mays), read-out: Visual Growth Reduction (%) 14 Days After Application, ZEAMX

Structure (SMILES)	pest or weed control at 70 g/ha [1, 3]	pest or weed control at 140 g/ha [1, 3]	pest or weed control at 70 g/ha [1, 4]	pest or weed control at 140 g/ha [1, 4]	pest or weed control at 70 g/ha [1, 5]	pest or weed control at 140 g/ha [1, 5]	pest or weed control at 70 g/ha [1, 6]	pest or weed control at 140 g/ha [1, 6]	pest or weed control at 70 g/ha [1, 7]	pest or weed control at 140 g/ha [1, 7]	pest or weed control at 70 g/ha [1, 8]	pest or weed control at 140 g/ha [1, 8]	pest or weed control at 70 g/ha [1, 9]	pest or weed control at 140 g/ha [1, 9]	pest or weed control at 70 g/ha [2, 10]	pest or weed control at 140 g/ha [2, 10]	pest or weed control at 70 g/ha [2, 11]	pest or weed control at 140 g/ha [2, 11]	pest or weed control at 70 g/ha [2, 12]	pest or weed control at 140 g/ha [2, 12]	further results
COC(=O)c1nc(-c2ccc(OC(F)F)cc2)cc(N)c1Cl [Compound 23]	95 to 100%	95 to 100%	95 to 100%	95 to 100%	0 to 29%	0 to 29%	85 to 94%	95 to 100%	95 to 100%	95 to 100%	0 to 29%	85 to 94%	0 to 29%	0 to 29%	0 to 29%	0 to 29%	45 to 59%	75 to 84%	75 to 84%	75 to 84%	pest or weed control at 70 g/ha [2, 13]: 85 to 94%; pest or weed control at 140 g/ha [2, 13]: 95 to 100%; pest or weed control at 70 g/ha [2, 14]: 0 to 29%; pest or weed control at 140 g/ha [2, 14]: 0 to 29%; pest or weed control at 70 g/ha [2, 15]: 0 to 29%; pest or weed control at 140 g/ha [2, 15]: 45 to 59%; pest or weed control at 70 g/ha [2, 16]: 85 to 94%; pest or weed control at 140 g/ha [2, 16]: 95 to 100%; pest or weed control at 70 g/ha [2, 17]: 0 to 29%; pest or weed control at 140 g/ha [2, 17]: 0 to 29%; melting point: 166.4 to 169 °C
COc1c(N)nc(-c2cc(F)c(I)cc2F)nc1C(=O)O [Compound 119]	75 to 84%	85 to 94%	85 to 94%	95 to 100%	95 to 100%	95 to 100%	95 to 100%	95 to 100%	95 to 100%	95 to 100%	85 to 94%	85 to 94%	0 to 29%	0 to 29%	45 to 59%	60 to 74%	45 to 59%	45 to 59%	45 to 59%	60 to 74%	pest or weed control at 70 g/ha [2, 13]: 85 to 94%; pest or weed control at 140 g/ha [2, 13]: 85 to 94%; pest or weed control at 70 g/ha [2, 14]: 0 to 29%; pest or weed control at 140 g/ha [2, 14]: 0 to 29%; pest or weed control at 70 g/ha [2, 15]: 60 to 74%; pest or weed control at 140 g/ha [2, 15]: 60 to 74%; pest or weed control at 70 g/ha [2, 16]: 60 to 74%; pest or weed control at 140 g/ha [2, 16]: 60 to 74%; pest or weed control at 70 g/ha [2, 17]: 60 to 74%; pest or weed control at 140 g/ha [2, 17]: 60 to 74%; melting point: 131 to 132 °C
COc1c(N)nc(-c2cc(F)c(Br)cc2F)nc1C(=O)O [Compound 11]	95 to 100%	95 to 100%	95 to 100%	95 to 100%	95 to 100%	95 to 100%	95 to 100%	95 to 100%	95 to 100%	95 to 100%	95 to 100%	95 to 100%	0 to 29%	45 to 59%	45 to 59%	60 to 74%	45 to 59%	45 to 59%	60 to 74%	60 to 74%	pest or weed control at 70 g/ha [2, 13]: 85 to 94%; pest or weed control at 140 g/ha [2, 13]: 85 to 94%; pest or weed control at 70 g/ha [2, 14]: 0 to 29%; pest or weed control at 140 g/ha [2, 14]: 0 to 29%; pest or weed control at 70 g/ha [2, 15]: 60 to 74%; pest or weed control at 140 g/ha [2, 15]: 60 to 74%; pest or weed control at 70 g/ha [2, 16]: 60 to 74%; pest or weed control at 140 g/ha [2, 16]: 75 to 84%; pest or weed control at 70 g/ha [2, 17]: 60 to 74%; pest or weed control at 140 g/ha [2, 17]: 60 to 74%; melting point: 132 to 133 °C
